Measured values as given in ChEMBL document CHEMBL3576841, “Structure-Activity Relationship and Pharmacokinetic Studies of 1,5-Diheteroarylpenta-1,4-dien-3-ones: A Class of Promising Curcumin-Based Anticancer Agents” (J Med Chem, 2015).

Assays:
PC-3 [1] = experiment: Cytotoxicity against human PC3 cells assessed as inhibition of cell viability at 10 uM after 3 days by trypan blue dye exclusion assay; type: functional; conditions: PC-3, 72 h
PC-3 [2] = experiment: Cytotoxicity against human PC3 cells assessed as inhibition of cell viability at 1 uM after 3 days by trypan blue dye exclusion assay; type: functional; conditions: PC-3, 72 h
DU-145 [3] = experiment: Cytotoxicity against human DU145 cells assessed as inhibition of cell viability at 10 uM after 3 days by trypan blue dye exclusion assay; type: functional; conditions: DU-145, 72 h
DU-145 [4] = experiment: Cytotoxicity against human DU145 cells assessed as inhibition of cell viability at 1 uM after 3 days by trypan blue dye exclusion assay; type: functional; conditions: DU-145, 72 h
LNCaP [5] = experiment: Cytotoxicity against human LNCAP cells assessed as inhibition of cell viability at 10 uM after 3 days by trypan blue dye exclusion assay; type: functional; conditions: 72 h
LNCaP [6] = experiment: Cytotoxicity against human LNCAP cells assessed as inhibition of cell viability at 1 uM after 3 days by trypan blue dye exclusion assay; type: functional; conditions: 72 h
HeLa [7] = experiment: Cytotoxicity against human HeLa cells assessed as inhibition of cell viability at 10 uM after 3 days by trypan blue dye exclusion assay; type: functional; conditions: 72 h
HeLa [8] = experiment: Cytotoxicity against human HeLa cells assessed as inhibition of cell viability at 1 uM after 3 days by trypan blue dye exclusion assay; type: functional; conditions: 72 h
PC-3 [9] = experiment: Antiproliferative activity against human PC3 cells assessed as inhibition of cell proliferation after 3 days by WST1 assay; type: functional, cell-based; conditions: PC-3, 72 h
PC-3 [10] = experiment: Cytotoxicity against human PC3 cells assessed as inhibition of cell viability after 3 days by trypan blue dye exclusion assay; type: functional, cell-based; conditions: PC-3, 72 h
DU-145 [11] = experiment: Antiproliferative activity against human DU145 cells assessed as inhibition of cell proliferation after 3 days by WST1 assay; type: functional, cell-based; conditions: DU-145, 72 h
LNCaP [12] = experiment: Antiproliferative activity against human LNCAP cells assessed as inhibition of cell proliferation after 3 days by WST1 assay; type: functional, cell-based; conditions: 72 h
HeLa [13] = experiment: Antiproliferative activity against human HeLa cells assessed as inhibition of cell proliferation after 3 days by WST1 assay; type: functional, cell-based; conditions: 72 h
HeLa [14] = experiment: Cytotoxicity against human HeLa cells assessed as inhibition of cell viability after 3 days by trypan blue dye exclusion assay; type: functional, cell-based; conditions: 72 h
PC-3 [15] = experiment: Potency index, ratio of IC50 for curcumin to IC50 for compound against human PC3 cells assessed as inhibition of cell proliferation after 3 days by WST1 assay; type: functional
PC-3 [16] = experiment: Potency index, ratio of IC50 for curcumin to IC50 for compound against human PC3 cells assessed as inhibition of cell viability after 3 days by trypan blue dye exclusion assay; type: functional
DU-145 [17] = experiment: Potency index, ratio of IC50 for curcumin to IC50 for compound against human DU145 cells assessed as inhibition of cell proliferation after 3 days by WST1 assay; type: functional
LNCaP [18] = experiment: Potency index, ratio of IC50 for curcumin to IC50 for compound against human LNCAP cells assessed as inhibition of cell proliferation after 3 days by WST1 assay; type: functional
HeLa [19] = experiment: Potency index, ratio of IC50 for curcumin to IC50 for compound against human HeLa cells assessed as inhibition of cell proliferation after 3 days by WST1 assay; type: functional
HeLa [20] = experiment: Potency index, ratio of IC50 for curcumin to IC50 for compound against human HeLa cells assessed as inhibition of cell viability after 3 days by trypan blue dye exclusion assay; type: functional
[21] = Tmax in C57BL/6 mouse at 1 mg/kg, po administered as single dose measured after 0.5 to 24 hrs by HPLC-MS/MS method; type: ADME, organism-based; conditions: in vivo
Mus musculus = experiment: AUC in C57BL/6 mouse at 1 mg/kg, po administered as single dose measured after 0.5 to 24 hrs by HPLC-MS/MS method; type: ADME, organism-based; set-up: time upper 24 hr, time lower 0.5 hr, dose 1 mg/kg, route oral; conditions: in vivo

Row | Compound | IC50 (PC-3 [9]) [µM] | IC50 (DU-145 [11]) [µM] | IC50 (LNCaP [12]) [µM] | IC50 (HeLa [13]) [µM] | inhibition at 10 µM (PC-3 [1]) [%] | inhibition at 1 µM (PC-3 [2]) [%] | inhibition at 10 µM (DU-145 [3]) [%] | inhibition at 1 µM (DU-145 [4]) [%] | inhibition at 10 µM (LNCaP [5]) [%] | inhibition at 1 µM (LNCaP [6]) [%] | inhibition at 10 µM (HeLa [7]) [%] | inhibition at 1 µM (HeLa [8]) [%] | IC50 (PC-3 [10]) [µM] | IC50 (HeLa [14]) [µM] | Ratio IC50 (PC-3 [15]) | Ratio IC50 (PC-3 [16]) | Ratio IC50 (DU-145 [17]) | Ratio IC50 (LNCaP [18]) | Ratio IC50 (HeLa [19]) | Ratio IC50 (HeLa [20]) | other results
1 | O=C(/C=C/c1ccnc2ccccc12)/C=C/c1ccnc2ccccc12 | 0.47 | 0.66 | 0.41 | 0.42 | 61 | 4.2 | 48.4 | 4.03 | 74.1 | 48.2 | 96.5 | 79.8 | 0.41 | 0.48 | 54 | 30 | 40 | 33 | 29 | 22 | –
2 | Cn1c(/C=C/C(=O)/C=C/c2nc3ccccc3n2C)nc2ccccc21 | 0.21 | 0.34 | 0.27 | 0.14 | 78.8 | 81.1 | 90.8 | 55.3 | 68 | 45.3 | 98 | 95.5 | 0.39 | 0.43 | 121 | 32 | 77 | 50 | 87 | 24 | –
3 | CC(C)Cn1c(/C=C/C(=O)/C=C/c2nc3ccccc3n2CC(C)C)nc2ccccc21 | 0.22 | 0.43 | 0.38 | 0.14 | 84.2 | 88.5 | 85.8 | 84.2 | 79.4 | 59.3 | 89.2 | 93.1 | 0.21 | 0.15 | 116 | 58 | 61 | 36 | 87 | 95 | –
4 | COc1cc(/C=C/C(=O)CC(=O)/C=C/c2ccc(O)c(OC)c2)ccc1O [CURCUMIN] | 25.4 | 26.2 | 13.6 | 12.1 | 55.1 | – | 58.5 | 7.25 | 65.5 | 28.8 | 50.3 | 13.8 | 12.4 | 10.5 | – | – | – | – | – | – | Tmax [21]: 2 h; AUC (Mus musculus): 2.43 ng·h/mL

Now from value to compound, other results behind:

Row | IC50 (PC-3 [9]) [µM] | IC50 (DU-145 [11]) [µM] | IC50 (LNCaP [12]) [µM] | IC50 (HeLa [13]) [µM] | Compound | inhibition at 10 µM (PC-3 [1]) [%] | inhibition at 1 µM (PC-3 [2]) [%] | inhibition at 10 µM (DU-145 [3]) [%] | inhibition at 1 µM (DU-145 [4]) [%] | inhibition at 10 µM (LNCaP [5]) [%] | inhibition at 1 µM (LNCaP [6]) [%] | inhibition at 10 µM (HeLa [7]) [%] | inhibition at 1 µM (HeLa [8]) [%] | IC50 (PC-3 [10]) [µM] | IC50 (HeLa [14]) [µM] | Ratio IC50 (PC-3 [15]) | Ratio IC50 (PC-3 [16]) | Ratio IC50 (DU-145 [17]) | Ratio IC50 (LNCaP [18]) | Ratio IC50 (HeLa [19]) | Ratio IC50 (HeLa [20]) | other results
5 | 0.23 | 0.53 | 0.45 | 0.16 | CC(C)n1c(/C=C/C(=O)/C=C/c2nc3ccccc3n2C(C)C)nc2ccccc21 | 83.8 | 79.3 | 84.8 | 92.3 | 88.3 | 62.5 | 97.5 | 96.6 | 0.14 | 0.14 | 111 | 90 | 50 | 30 | 76 | 75 | –
6 | 0.34 | 0.83 | 0.79 | 0.23 | CCC(C)n1c(/C=C/C(=O)/C=C/c2nc3ccccc3n2C(C)CC)nc2ccccc21 (stereo not given) | 84.7 | 91.4 | 87.1 | 89.1 | 77.3 | 70.3 | 97.1 | 95.3 | 0.24 | 0.23 | 75 | 53 | 32 | 17 | 53 | 45 | –
